Source: patent US8889704B2 (Array BioPharma Inc., priority 2011, dated 2014)
Structures can show the parent of a compound that is named as a salt.

Experiments:
Format in all cases: biochemical
[1] = biological target: T1, GST-tagged recombinant full-length human Pim-2 (Homo sapiens, UniProt Q9P1W9); experiment: PIM-2 Assay (as Example A); conditions: averaged IC50; 4 μM ATP, 1.0 μM PIM2tide, 1.5 nM Pim-2
T1 construct: GST-tagged recombinant full-length human Pim-2; GST
Procedure, shortened: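 Radiometric filter-binding assay: GST-tagged full-length human Pim-2 (1.5 nM) phosphorylates 1.0 μM PIM2tide with 4 μM [γ-33P]ATP for 60 min at 22 °C in pH 7.4 MOPS buffer, 2% DMSO. 10-point 3-fold dilutions from 10 μM top dose; IC50 from 4-parameter fit of percent of control.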

recombinant rat PIM-3 = recombinant rat PIM-3 (Rattus norvegicus, UniProt O70444); experiment: PIM-3 Assay (as Example A); conditions: averaged IC50; 30 μM ATP, 3.75 μM PIM2tide, 0.5 nM PIM-3
Procedure, shortened: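 Recombinant rat PIM-3 (0.5 nM) with 3.75 μM PIM2tide and 30 μM [γ-33P]ATP in MOPS pH 7.4 buffer, 60 min at 22 °C; labelled peptide captured on phosphocellulose filters and counted by scintillation. 10-point curve (top dose 10 μM, 2% DMSO); IC50 from 4-parameter fit of percent of control.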

PIM-1 = PIM-1 (Homo sapiens, UniProt P11309); experiment: Enzyme PIM-1 Assay ([33P]ATP incorporation into PIM2tide, filter plate); conditions: averaged IC50; 35 μM ATP, 7.5 μM PIM2tide, 0.25 nM PIM-1, 60 min at 22° C.
Chain of PIM-1 (P11309 whole entry, species assumed): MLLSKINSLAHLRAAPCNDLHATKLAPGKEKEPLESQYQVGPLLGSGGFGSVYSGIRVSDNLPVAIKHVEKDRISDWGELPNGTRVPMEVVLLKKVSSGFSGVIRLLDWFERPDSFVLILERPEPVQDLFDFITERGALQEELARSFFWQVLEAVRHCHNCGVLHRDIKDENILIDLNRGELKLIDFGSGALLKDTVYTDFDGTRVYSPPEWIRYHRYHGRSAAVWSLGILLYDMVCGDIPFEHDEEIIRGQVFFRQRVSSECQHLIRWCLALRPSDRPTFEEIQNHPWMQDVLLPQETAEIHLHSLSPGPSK
Procedure, shortened: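 Radiometric assay: 0.25 nM PIM-1 phosphorylates 7.5 μM PIM2tide with 35 μM [γ-33P]ATP in 20 mM MOPS pH 7.4, 10 mM MgCl2, 1 mM DTT, 0.005% Tween-20, 60 min at 22 °C. Product captured on P81 filters, scintillation counted; 10-point 3-fold curve from 10 μM top, 2% DMSO, IC50 by 4-parameter logistic fit of POC.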

T1 sequence (Q9P1W9 whole entry): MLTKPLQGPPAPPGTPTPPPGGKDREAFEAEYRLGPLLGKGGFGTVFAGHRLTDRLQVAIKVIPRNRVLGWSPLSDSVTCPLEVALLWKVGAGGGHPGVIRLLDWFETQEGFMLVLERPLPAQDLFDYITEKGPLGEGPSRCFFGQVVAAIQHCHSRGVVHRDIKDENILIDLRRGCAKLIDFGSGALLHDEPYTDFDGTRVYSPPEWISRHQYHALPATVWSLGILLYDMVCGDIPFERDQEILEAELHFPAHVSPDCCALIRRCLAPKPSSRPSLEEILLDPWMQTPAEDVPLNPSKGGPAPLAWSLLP

Row | IC50 [1] [nM] | IC50 (recombinant rat PIM-3) [nM] | IC50 (PIM-1) [nM] | Structure (SMILES)
1 | 67 | 0.6 | 0.41 | CC(C)(C)NC(=O)c1ccc2ccc(-c3nnc4ccc([C@@H](N5CC[C@@H](N)C5)C(F)(F)F)cn34)nc2c1 [Example 54, 2-(6-((R)-1-((R)-3-aminopyrrolidin-1-yl)-2,2,2-trifluoroethyl)-[1,2,4]triazolo[4,3-a]pyridin-3-yl)-N-tert-butylquinoline-7-carboxamide dihydrochloride]
2 | 35 | 0.3 | 0.25 | CC1(NC(=O)c2ccc3ccc(-c4nnc5ccc([C@@H](N6CC[C@@H](N)C6)C(F)(F)F)cn45)nc3c2)CC1 [Example 55, 2-(6-((R)-1-((R)-3-aminopyrrolidin-1-yl)-2,2,2-trifluoroethyl)-[1,2,4]triazolo[4,3-a]pyridin-3-yl)-N-(1-methylcyclopropyl)quinoline-7-carboxamide dihydrochloride]
3 | 16 | 2.4 | 0.14 | N[C@@H]1CCN([C@@H](c2ccc3nnc(-c4ccc5cccc(C6CC6)c5n4)n3c2)C(F)(F)F)C1 [Example 56, (R)-1-((S)-1-(3-(8-cyclopropylquinolin-2-yl)-[1,2,4]triazolo[4,3-a]pyridin-6-yl)-2,2,2-trifluoroethyl)pyrrolidin-3-amine]
4 | > 100 | 0.9 | 0.45 | CN[C@H]1CCN([C@H](c2ccc3nnc(-c4ccc5ccc(C(=O)NC(C)C)cc5n4)n3c2)C(F)(F)F)C1 [Example 57, N-isopropyl-2-(6-((R)-2,2,2-trifluoro-1-((S)-3-(methylamino)pyrrolidin-1-yl)ethyl)-[1,2,4]triazolo[4,3-a]pyridin-3-yl)quinoline-7-carboxamide]
5 | > 100 | 0.7 | 0.6 | CN[C@H]1CCN([C@H](c2ccc3nnc(-c4ccc5ccc(C(=O)NC(C)(C)C)cc5n4)n3c2)C(F)(F)F)C1 [Example 58, N,N-tert-butyl-2-(6-((R)-2,2,2-trifluoro-1-((S)-3-(methylamino)pyrrolidin-1-yl)ethyl)-[1,2,4]triazolo[4,3-a]pyridin-3-yl)quinoline-7-carboxamide]
6 | > 100 | 0.8 | 0.56 | CCC(C)(C)NC(=O)c1ccc2ccc(-c3nnc4ccc([C@@H](N5CC[C@@H](N)C5)C(F)(F)F)cn34)nc2c1 [Example 59, 2-(6-((R)-1-((R)-3-aminopyrrolidin-1-yl)-2,2,2-trifluoroethyl)-[1,2,4]triazolo[4,3-a]pyridin-3-yl)-N-tert-pentylquinoline-7-carboxamide dihydrochloride]
7 | 77 | 4 | 0.19 | N[C@H]1CCN([C@H](c2ccc3nnc(-c4ccc5ccc(F)c(C6CC6)c5n4)n3c2)C(F)(F)F)C1 [Example 60, (S)-1-((R)-1-(3-(8-cyclopropyl-7-fluoroquinolin-2-yl)-[1,2,4]triazolo[4,3-a]pyridin-6-yl)-2,2,2-trifluoroethyl)pyrrolidin-3-amine dihydrochloride]
8 | > 100 | 3.7 | 0.59 | N[C@@H]1CCN([C@H](c2ccc3nnc(-c4ccc5ccc(C6CC6)cc5n4)n3c2)C(F)(F)F)C1 [Example 61, (R)-1-((R)-1-(3-(7-cyclopropylquinolin-2-yl)-[1,2,4]triazolo[4,3-a]pyridin-6-yl)-2,2,2-trifluoroethyl)pyrrolidin-3-amine dihydrochloride]
9 | 2.9 | 1.4 | 0.71 | CC(C)(C)c1cccc2ccc(-c3nnc4ccc([C@@H](N5C[C@@H]6C[C@H]5CN6)C(F)(F)F)cn34)nc12 [Example 62, 2-(6-((R)-1-((1S,4S)-2,5-diazabicyclo[2.2.1]heptan-2-yl)-2,2,2-trifluoroethyl)-[1,2,4]triazolo[4,3-a]pyridin-3-yl)-8-tert-butylquinoline]
10 | > 100 | 25 | 11.7 | Fc1ccc2ccc(-c3nnc4ccc([C@@H](N5C[C@@H]6C[C@H]5CN6)C(F)(F)F)cn34)nc2c1 [Example 63, 2-(6-((R)-1-((1S,4S)-2,5-diazabicyclo[2.2.1]heptan-2-yl)-2,2,2-trifluoroethyl)-[1,2,4]triazolo[4,3-a]pyridin-3-yl)-7-fluoro quinoline dihydrochloride]
11 | > 100 | 14 | 9.33 | FC(F)(F)[C@@H](c1ccc2nnc(-c3ccc4ccc(Cl)cc4n3)n2c1)N1C[C@@H]2C[C@H]1CN2 [Example 64, 2-(6-((R)-1-((1S,4S)-2,5-diazabicyclo[2.2.1]heptan-2-yl)-2,2,2-trifluoroethyl)-[1,2,4]triazolo[4,3-a]pyridin-3-yl)-7-chloro quinoline dihydrochloride]
12 | 18 | 2 | 1.45 | FC(F)(F)[C@@H](c1ccc2nnc(-c3ccc4cccc(C5CC5)c4n3)n2c1)N1C[C@@H]2C[C@H]1CN2 [Example 65, 2-(6-((R)-1-((1S,4S)-2,5-diazabicyclo[2.2.1]heptan-2-yl)-2,2,2-trifluoroethyl)-[1,2,4]triazolo[4,3-a]pyridin-3-yl)-8-cyclopropylquinoline dihydrochloride]
13 | 14 | 1.7 | 0.92 | CCc1cccc2ccc(-c3nnc4ccc([C@@H](N5C[C@@H]6C[C@H]5CN6)C(F)(F)F)cn34)nc12 [Example 66, 2-(6-((R)-1-((1S,4S)-2,5-diazabicyclo[2.2.1]heptan-2-yl)-2,2,2-trifluoroethyl)-[1,2,4]triazolo[4,3-a]pyridin-3-yl)-8-ethylquinoline dihydrochloride]
14 | 63 | 3.2 | 1.63 | FC(F)(F)[C@@H](c1ccc2nnc(-c3ccc4cccc(OCC5CC5)c4n3)n2c1)N1C[C@@H]2C[C@H]1CN2 [Example 67, 2-(6-((R)-1-((1S,4S)-2,5-diazabicyclo[2.2.1]heptan-2-yl)-2,2,2-trifluoroethyl)-[1,2,4]triazolo[4,3-a]pyridin-3-yl)-8-(cyclopropylmethoxy)quinoline dihydrochloride]
15 | > 100 | 14 | 4.09 | FC(F)(F)[C@@H](c1ccc2nnc(-c3ccc4ccc(Br)cc4n3)n2c1)N1C[C@@H]2C[C@H]1CN2 [Example 68, 2-(6-((R)-1-(1S,4S)-2,5-diazabicyclo[2.2.1]heptan-2-yl)-2,2,2-trifluoroethyl)-[1,2,4]triazolo[4,3-a]pyridin-3-yl)-7-bromo quinoline dihydrochloride]
16 | 38 | 0.5 | 0.21 | COc1c(C2CC2)ccc2ccc(-c3nnc4ccc([C@@H](N5CC[C@H](N)C5)C(F)(F)F)cn34)nc12 [Example 69, (S)-1-((R)-1-(3-(7-cyclopropyl-8-methoxyquinolin-2-yl)-[1,2,4]triazolo[4,3-a]pyridin-6-yl)-2,2,2-trifluoroethyl)pyrrolidin-3-amine dihydrochloride]
17 | > 100 | 0.3 | 0.18 | CC(C)C(=O)Nc1ccc2ccc(-c3nnc4ccc([C@@H](N5CC[C@H](N)C5)C(F)(F)F)cn34)nc2c1 [Example 70, N-(2-(6-((R)-1-((S)-3-aminopyrrolidin-1-yl)-2,2,2-trifluoroethyl)-[1,2,4]triazolo[4,3-a]pyridin-3-yl)quinolin-7-yl)isobutyramide]
18 | > 100 | 0.3 | 0.2 | CC(C)(C)C(=O)Nc1ccc2ccc(-c3nnc4ccc([C@@H](N5CC[C@H](N)C5)C(F)(F)F)cn34)nc2c1 [Example 71, N-(2-(6-((R)-1-((S)-3-aminopyrrolidin-1-yl)-2,2,2-trifluoroethyl)-[1,2,4]triazolo[4,3-a]pyridin-3-yl)quinolin-7-yl)pivalamide]
19 | > 100 | 2.9 | 0.19 | CC(C)Oc1cccc2ccc(-c3nnc4ccc([C@@H](N5C[C@@H](O)[C@H](O)C5)C(F)(F)F)cn34)nc12 [Example 72, (3R,4R)-1-((R)-2,2,2-trifluoro-1-(3-(8-isopropoxyquinolin-2-yl)-[1,2,4]triazolo[4,3-a]pyridin-6-yl)ethyl)pyrrolidine-3,4-diol]
20 | > 100 | 32 | 0.17 | CCc1cccc2ccc(-c3nnc4ccc([C@@H](N5C[C@@H](O)[C@H](O)C5)C(F)(F)F)cn34)nc12 [Example 73, (3R,4R)-1-((R)-1-(3-(8-ethylquinolin-2-yl)-[1,2,4]triazolo[4,3-a]pyridin-6-yl)-2,2,2-trifluoroethyl)pyrrolidine-3,4-diol]
21 | 41 | 6.7 | 0.09 | CC(C)(C)c1cccc2ccc(-c3nnc4ccc([C@@H](N5C[C@@H](O)[C@H](O)C5)C(F)(F)F)cn34)nc12 [Example 74, (3R,4R)-1-((R)-1-(3-(8-tert-butylquinolin-2-yl)-[1,2,4]triazolo[4,3-a]pyridin-6-yl)-2,2,2-trifluoroethyl)pyrrolidine-3,4-diol]
